Data from publication PMC7031696 (Cell chemical biology, 2019).
Read-outs that look alike come from different tables or passages of the source.

Columns and labels:
[1] = system: Plasmodium falciparum 3D7-A10 parasites; assay: Stage specificity assay (8-h exposure of synchronized stages, IC50^8h); type: cell-based; conditions: for IC50: Plasmodium falciparum
[2] = system: asynchronous 3D7-A10 parasite cultures; assay: Standard 72-h exposure asexual blood stage susceptibility assay (IC50^72h); type: cell-based, Plasmodium falciparum; conditions: Plasmodium falciparum, 3D7, 72 h, read-out: Overall (72hr assay) Mean IC50 (IC50^72h)
[3] = system: 3D7-MR4 trophozoite parasite-infected RBCs; assay: Metabolomic profiling (hydrophilic metabolite changes, UHPLC-MS); type: cell-based, Plasmodium falciparum

Ratio lowest IC50 8hr/IC50 72hr ([1]; 3D7-A10): 18.0 | IC50 [2]: 4.4 nM
Structure (SMILES): CCOC(=O)C1=C(C)NC2=C(C(=O)CC(c3ccc(OC)c(OC)c3)C2)C1c1ccccc1Cl (stereo not shown) [GNF-Pf-5660, reference compound]
IC50 ([1]; 3D7, read-out: Early rings Mean IC50 (IC50^8h), 8-h exposure 0–8 hr, 3D7-A10, survival at 60 h): 119 nM | IC50 ([1]; 3D7, read-out: Early trophozoites Mean IC50 (IC50^8h), 8-h exposure 16–24 hr, 3D7-A10, survival at 60 h): 108 nM | IC50 ([1]; 3D7, read-out: Late rings Mean IC50 (IC50^8h), 8-h exposure 8–16 hr, 3D7-A10, survival at 60 h): 238 nM | IC50 ([1]; 3D7, read-out: Late trophozoites Mean IC50 (IC50^8h), 8-h exposure 24–32 hr, 3D7-A10, survival at 60 h): 79.3 nM | IC50 ([1]; 3D7, read-out: Schizonts Mean IC50 (IC50^8h), 8-h exposure 32–40 hr, 3D7-A10, survival at 60 h): 290 nM | Stage of peak activity (Figure 6) ([1]; period when the parasite was most susceptible (lowest IC50^8h)): rings and trophozoites | peptide levels (hemoglobin catabolism signature) ([3]; 10 × IC50^72h, 2.5 hr, trophozoites): decreased peptide levels | Log2(fold changes) 3-phosphoglycerate ([3]; metabolite 3-phosphoglycerate, log2 fold change): 0.0553 | Log2(fold changes) 4-Pyridoxic acid ([3]; metabolite 4-Pyridoxic acid, log2 fold change): 0.0311 | Log2(fold changes) 4-aminobutyrate ([3]; metabolite 4-aminobutyrate, log2 fold change): -0.1913 | Log2(fold changes) 4-phosphopantetheine ([3]; metabolite 4-phosphopantetheine, log2 fold change): -0.0588 | Log2(fold changes) 4-phosphopantothenate ([3]; metabolite 4-phosphopantothenate, log2 fold change): -0.0656 | Log2(fold changes) 5-aminopentanoic acid ([3]; metabolite 5-aminopentanoic acid, log2 fold change): 0.0000 | Log2(fold changes) 5-methyl-THF ([3]; metabolite 5-methyl-THF, log2 fold change): 0.0000 | Log2(fold changes) 5-phosphoribosyl-1-pyrophosphate ([3]; metabolite 5-phosphoribosyl-1-pyrophosphate, log2 fold change): 0.0000 | Log2(fold changes) 6-phospho-D-gluconate ([3]; metabolite 6-phospho-D-gluconate, log2 fold change): -0.0448 | Log2(fold change) HVDD ([3]; metabolite HVDD): -2.3471 | Log2(fold change) Hydroxyisocaproic acid ([3]; metabolite Hydroxyisocaproic acid): 0.0000 | Log2(fold change) IDP ([3]; metabolite IDP): 0.0000 | Log2(fold change) IMP ([3]; metabolite IMP): -0.0436 | Log2(fold change) Inositol ([3]; metabolite Inositol): 0.0000 | Log2(fold change) Isopentyl-PP ([3]; metabolite Isopentyl-PP): 0.0000 | Log2(fold change) L-arginino-succinate ([3]; metabolite L-arginino-succinate): -1.4037 | Log2(fold change) LD ([3]; metabolite LD): 0.0323 | Log2(fold change) Myristoyl/tetradecanoyl-CoA ([3]; metabolite Myristoyl/tetradecanoyl-CoA): 0.0000 | Log2(fold change) N-Acetyl-L-alanine ([3]; metabolite N-Acetyl-L-alanine): -0.5679 | Log2(fold change) N-acetyl-L-ornithine ([3]; metabolite N-acetyl-L-ornithine): -1.3851 | Log2(fold change) N-acetyl-glucosamine-1/6-phosphate ([3]; metabolite N-acetyl-glucosamine-1/6-phosphate): 0.1805 | Log2(fold change) N-acetyl-glutamate ([3]; metabolite N-acetyl-glutamate): 0.1150 | Log2(fold change) N-acetyl-glutamine ([3]; metabolite N-acetyl-glutamine): -0.5582 | Log2(fold change) N-carbamoyl-L-aspartate ([3]; metabolite N-carbamoyl-L-aspartate): -0.1586 | Log2(fold change) NAD+ ([3]; metabolite NAD+): -0.1007 | Log2(fold change) NADH ([3]; metabolite NADH): 0.4611 | Log2(fold change) NADP+ ([3]; metabolite NADP+): 0.0287 | Log2(fold change) NADPH ([3]; metabolite NADPH): 0.0479 | Log2(fold change) O-acetyl-L-serine ([3]; metabolite O-acetyl-L-serine): 0.0000 | Log2(fold change) Octoluse 8/1P ([3]; metabolite Octoluse 8/1P): -0.0806 | Log2(fold change) Octoluse Bisphosphate ([3]; metabolite Octoluse Bisphosphate): -0.3183 | Log2(fold change) PD ([3]; metabolite PD): -1.8683 | Log2(fold change) PE ([3]; metabolite PE): -1.8289 | Log2(fold change) PEE ([3]; metabolite PEE): -1.8489 | Log2(fold change) PEEK ([3]; metabolite PEEK): -2.1431 | Log2(fold change) PVNF ([3]; metabolite PVNF): -2.1997 | Log2(fold change) Pyroglutamic acid ([3]; metabolite Pyroglutamic acid): -0.1216 | Log2(fold change) Pyrophosphate ([3]; metabolite Pyrophosphate): 0.0000 | Log2(fold change) Ribose-5-phosphate ([3]; metabolite Ribose-5-phosphate): 0.0000 | Log2(fold change) S-adenosyl-L-homocysteine ([3]; metabolite S-adenosyl-L-homocysteine): -0.0693 | Log2(fold change) S-adenosyl-L-methioninamine ([3]; metabolite S-adenosyl-L-methioninamine): 0.0000 | Log2(fold change) S-adenosyl-L-methionine ([3]; metabolite S-adenosyl-L-methionine): 0.0000 | Log2(fold change) S-methyl-5'-thioadenosine ([3]; metabolite S-methyl-5'-thioadenosine): -0.0720 | Log2(fold change) SD ([3]; metabolite SD): -1.1525 | Log2(fold change) SDL ([3]; metabolite SDL): -1.7902 | Log2(fold change) SID ([3]; metabolite SID): 0.0000 | Log2(fold change) Sedoheptulose bisphosphate ([3]; metabolite Sedoheptulose bisphosphate): -0.1508 | Log2(fold change) Thiamine pyrophosphate ([3]; metabolite Thiamine pyrophosphate): 0.0000 | Log2(fold changes) UDP-D-glucose ([3]; metabolite UDP-D-glucose, log2 fold change): 0.0139 | Log2(fold changes) UDP-D-glucuronate ([3]; metabolite UDP-D-glucuronate, log2 fold change): 0.0860 | Log2(fold changes) UDP-N-acetyl-glucosamine ([3]; metabolite UDP-N-acetyl-glucosamine, log2 fold change): -0.0276 | Log2(fold changes) UDP ([3]; metabolite UDP, log2 fold change): 0.1561 | Log2(fold changes) UMP ([3]; metabolite UMP, log2 fold change): -0.3498 | Log2(fold changes) UTP ([3]; metabolite UTP, log2 fold change): 0.0000 | Log2(fold change) hydroxyphenylpyruvate ([3]; metabolite hydroxyphenylpyruvate): 0.0000 | Log2(fold change) hydroxyproline/Aminolevulinate ([3]; metabolite hydroxyproline/Aminolevulinate): 0.0000 | Log2(fold change) hypoxanthine ([3]; metabolite hypoxanthine): 0.0715 | Log2(fold change) indole ([3]; metabolite indole): -0.1422 | Log2(fold change) inosine ([3]; metabolite inosine): -0.1669 | Log2(fold change) isoleucine ([3]; metabolite isoleucine): 0.0000 | Log2(fold change) lactate ([3]; metabolite lactate): -0.0958 | Log2(fold change) leucine ([3]; metabolite leucine): 0.0000 | Log2(fold change) lysine ([3]; metabolite lysine): 0.0000 | Log2(fold change) malate ([3]; metabolite malate): -0.8784 | Log2(fold change) maleic acid ([3]; metabolite maleic acid): -0.8581 | Log2(fold change) methionine ([3]; metabolite methionine): -0.1925 | Log2(fold change) myo-inositol ([3]; metabolite myo-inositol): 0.0386 | Log2(fold change) nicotinamide mononucleotide ([3]; metabolite nicotinamide mononucleotide): -0.1106 | Log2(fold change) nicotinate ([3]; metabolite nicotinate): 0.1148 | Log2(fold change) ornithine ([3]; metabolite ornithine): -0.1689 | Log2(fold change) orotate ([3]; metabolite orotate): -0.3275 | Log2(fold change) orotidine-5'-phosphate ([3]; metabolite orotidine-5'-phosphate): -1.3140 | Log2(fold change) oxaloacetate ([3]; metabolite oxaloacetate): -0.1481 | Log2(fold change) p-aminobenzoate ([3]; metabolite p-aminobenzoate): -0.1878 | Log2(fold change) p-hydroxybenzoate ([3]; metabolite p-hydroxybenzoate): 0.0000 | Log2(fold change) pantothenate ([3]; metabolite pantothenate): -0.2858 | Log2(fold change) phenylalanine ([3]; metabolite phenylalanine): -0.3503 | Log2(fold change) phenylpyruvate ([3]; metabolite phenylpyruvate): 0.0000 | Log2(fold change) phosphoenolpyruvate ([3]; metabolite phosphoenolpyruvate): 0.2491 | Log2(fold change) prephenate ([3]; metabolite prephenate): -0.5893 | Log2(fold change) proline ([3]; metabolite proline): 0.0000 | Log2(fold change) pyridoxine ([3]; metabolite pyridoxine): -0.1054 | Log2(fold change) pyruvate ([3]; metabolite pyruvate): -0.3244 | Log2(fold change) riboflavin ([3]; metabolite riboflavin): -0.0162 | Log2(fold change) ribose ([3]; metabolite ribose): 0.0000 | Log2(fold change) ribose-phosphate ([3]; metabolite ribose-phosphate): -0.2537 | Log2(fold change) ribulose-5-phosphate ([3]; metabolite ribulose-5-phosphate): 0.0000 | Log2(fold change) serine ([3]; metabolite serine): 0.0000 | Log2(fold change) sn-glycerol-3-phosphate ([3]; metabolite sn-glycerol-3-phosphate): 0.1845 | Log2(fold change) succinate/Methylmalonic acid ([3]; metabolite succinate/Methylmalonic acid): -0.0086 | Log2(fold change) succinyl-CoA/methylmalonyl-CoA ([3]; metabolite succinyl-CoA/methylmalonyl-CoA): 0.0000 | Log2(fold change) taurine ([3]; metabolite taurine): 0.0000 | Log2(fold change) thiamine ([3]; metabolite thiamine): -0.1840 | Log2(fold change) threonine/homoserine ([3]; metabolite threonine/homoserine): 0.0000 | Log2(fold change) thymidine ([3]; metabolite thymidine): 0.0000 | Log2(fold changes) thymine ([3]; metabolite thymine, log2 fold change): 0.0000 | Log2(fold changes) trehalose-6-Phosphate ([3]; metabolite trehalose-6-Phosphate, log2 fold change): 0.0000 | Log2(fold changes) tryptophan ([3]; metabolite tryptophan, log2 fold change): -0.0821 | Log2(fold changes) tyrosine ([3]; metabolite tyrosine, log2 fold change): -0.1854 | Log2(fold changes) uridine ([3]; metabolite uridine, log2 fold change): -0.2184
